# Laboratory results from patent US8637525B2, “Compounds for the reduction of beta-amyloid production” (Bristol-Myers Squibb Company, priority 2009, dated 2014).
# Where a name gives a salt, the structure may show the parent alone.
# Tested on: Aβ1-42 production
# Assay: Cellular assay for inhibition of Aβ1-42 production (H4 APP751 SWE clone 8.20)
# Format: cell-based
# Conditions: 19 h, H4 APP751 SWE clone 8.20 cells, 19 h incubation; class symbols; read-out: Activity Rating (Aβ42 cellular IC50)
# Outline: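 H4 cells stably expressing Swedish-mutant APP751 incubated with compound 19 h at 37 °C, 5% CO2. Secreted Aβ42 detected by HTRF with Aβ42 neoepitope antibody 565 (0.8 ng/well) and N-terminal 26D6 (75 ng/well), overnight at 4 °C. IC50 obtained by curve fitting.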
row,SMILES,IC50 [nM]
1,"CNc1nc(Nc2ccc(-n3cnc(Cl)c3)c(OC)c2)nc2c1COCC2c1ccc(Cl)cc1 (stereo not shown) [Example 64, N^2-(4-(4-chloro-1H-imidazol-1-yl)-3-methoxyphenyl)-8-(4-chlorophenyl)-N^4-methyl-7,8-dihydro-5H-pyrano[4,3-d]pyrimidine-2,4-diamine]",10 to 100
2,"COc1cc(Nc2nc3c(c(N(C)C)n2)COCC3c2ccc(Cl)cc2)ccc1-n1cnc(Cl)c1 (stereo not shown) [Example 65, N^2-(4-(4-chloro-1H-imidazol-1-yl)-3-methoxyphenyl)-8-(4-chlorophenyl)-N^4,N^4-dimethyl-7,8-dihydro-5H-pyrano[4,3-d]pyrimidine-2,4-diamine]",10 to 100
3,"COc1cc(Nc2nc3c(c(N4CC(F)(F)C4)n2)COCC3c2ccc(Cl)cc2)ccc1-n1cnc(Cl)c1 (stereo not shown) [Example 66, N-(4-(4-chloro-1H-imidazol-1-yl)-3-methoxyphenyl)-8-(4-chlorophenyl)-4-(3,3-difluoroazetidin-1-yl)-7,8-dihydro-5H-pyrano[4,3-d]pyrimidin-2-amine]",10 to 100
4,"Cc1ncnn1-c1ccc(Nc2nc3c(c(N(C)C)n2)COCC3c2ccc(Cl)cc2)cc1F (stereo not shown) [Example 67, 8-(4-chlorophenyl)-N^2-(3-fluoro-4-(5-methyl-1H-1,2,4-triazol-1-yl)phenyl)-N^4,N^4-dimethyl-7,8-dihydro-5H-pyrano[4,3-d]pyrimidine-2,4-diamine]",10 to 100
5,"Cc1ncnn1-c1ccc(Nc2nc3c(c(N4CC(F)(F)C4)n2)COCC3c2ccc(Cl)cc2)cc1F (stereo not shown) [Example 68, 8-(4-chlorophenyl)-4-(3,3-difluoroazetidin-1-yl)-N-(3-fluoro-4-(5-methyl-1H-1,2,4-triazol-1-yl)phenyl)-7,8-dihydro-5H-pyrano[4,3-d]pyrimidin-2-amine]",10 to 100
6,"CNc1nc(Nc2ccc(-n3ncnc3C)c(F)c2)nc2c1COCC2c1ccc(Cl)cc1 (stereo not shown) [Example 69, 8-(4-chlorophenyl)-N^2-(3-fluoro-4-(5-methyl-1H-1,2,4-triazol-1-yl)phenyl)-N^4-methyl-7,8-dihydro-5H-pyrano[4,3-d]pyrimidine-2,4-diamine]",10 to 100
7,"CNc1nc(Nc2ccc(-n3cnc(C)c3)c(OC)c2)nc2c1COCC2c1ccc(Cl)cc1 (stereo not shown) [Example 70, 8-(4-chlorophenyl)-N^2-(3-methoxy-4-(4-methyl-1H-imidazol-1-yl)phenyl)-N^4-methyl-7,8-dihydro-5H-pyrano[4,3-d]pyrimidine-2,4-diamine]",1.5 to 9.9
8,"CNc1nc(Nc2ccc(-n3cnc(C)n3)c(OC)c2)nc2c1COCC2c1ccc(Cl)cc1 (stereo not shown) [Example 71, 8-(4-chlorophenyl)-N^2-(3-methoxy-4-(3-methyl-1H-1,2,4-triazol-1-yl)phenyl)-N^4-methyl-7,8-dihydro-5H-pyrano[4,3-d]pyrimidine-2,4-diamine]",10 to 100
9,"CNc1nc(Nc2ccc(-n3cnc(Cl)c3)c(OC)c2)nc2c1COCC2c1ccc(Br)cc1 (stereo not shown) [Example 72, 8-(4-bromophenyl)-N^2-(4-(4-chloro-1H-imidazol-1-yl)-3-methoxyphenyl)-N^4-methyl-7,8-dihydro-5H-pyrano[4,3-d]pyrimidine-2,4-diamine]",1.5 to 9.9
10,"CCNc1nc(Nc2ccc(-n3cnc(Cl)c3)c(OC)c2)nc2c1COC2c1ccc(F)cc1 (stereo not shown) [Example 75, N^2-(4-(4-chloro-1H-imidazol-1-yl)-3-methoxyphenyl)-N^4-ethyl-7-(4-fluorophenyl)-5,7-dihydrofuro[3,4-d]pyrimidine-2,4-diamine]",10 to 100
11,"CCNc1nc(Nc2ccc(-n3ncnc3C)c(F)c2)nc2c1COC2c1ccc(F)cc1 (stereo not shown) [Example 78, N^4-ethyl-N^2-(3-fluoro-4-(5-methyl-1H-1,2,4-triazol-1-yl)phenyl)-7-(4-fluorophenyl)-5,7-dihydrofuro[3,4-d]pyrimidine-2,4-diamine]",10 to 100
12,"COc1cc(Nc2nc(N[C@H](C)C3CC3)c3c(n2)C(c2ccc(F)cc2)OC3)ccc1-n1cnc(Cl)c1 (stereo partly drawn) [Example 81, N2-(4-(4-chloro-1H-imidazol-1-yl)-3-methoxyphenyl)-N4-((R)-1-cyclopropylethyl)-7-(4-fluorophenyl)-5,7-dihydrofuro[3,4-d]pyrimidine-2,4-diamine, TFA]",10 to 100
13,"CNc1nc(Nc2ccc(-n3cnc(Cl)c3)c(OC)c2)nc2c1CCOC2c1ccccc1 (stereo not shown) [Example 85, N2-(4-(4-chloro-1H-imidazol-1-yl)-3-methoxyphenyl)-N4-methyl-8-phenyl-6,8-dihydro-5H-pyrano[3,4-d]pyrimidine-2,4-diamine]",1.5 to 9.9
14,"CNc1nc(Nc2ccc(-n3cnc(C)n3)c(F)c2)nc2c1CCOC2c1ccccc1 (stereo not shown) [Example 86, N2-(3-fluoro-4-(3-methyl-1H-1,2,4-triazol-1-yl)phenyl)-N4-methyl-8-phenyl-6,8-dihydro-5H-pyrano[3,4-d]pyrimidine-2,4-diamine]",10 to 100
15,"CCN(C)c1nc(Nc2ccc(-n3cnc(Cl)c3)c(OC)c2)nc2c1CCOC2c1ccc(F)cc1 (stereo not shown) [Example 89, N2-(4-(4-chloro-1H-imidazol-1-yl)-3-methoxyphenyl)-N4-ethyl-8-(4-fluorophenyl)-N4-methyl-6,8-dihydro-5H-pyrano[3,4-d]pyrimidine-2,4-diamine]",10 to 100
16,"COc1cc(Nc2nc3c(c(N(C)C)n2)CCC3c2ccc(Cl)cc2)ccc1-n1cnc(Cl)c1 (stereo not shown) [Example 92, N^2-(4-(4-Chloro-1H-imidazol-1-yl)-3-methoxyphenyl)-7-(4-chlorophenyl)-N^4,N^4-dimethyl-6,7-dihydro-5H-cyclopenta[d]pyrimidine-2,4-diamine]",10 to 100

# Next, values leading:
row,IC50 [nM],SMILES
1,10 to 100,"COc1cc(Nc2nc3c(c(N4CC(F)(F)C4)n2)COC3c2ccc(F)cc2)ccc1-n1cnc(Cl)c1 (stereo not shown) [Example 80A, N-(4-(4-chloro-1H-imidazol-1-yl)-3-methoxyphenyl)-4-(3,3-difluoroazetidin-1-yl)-7-(4-fluorophenyl)-5,7-dihydrofuro[3,4-d]pyrimidin-2-amine]"
2,10 to 100,"COc1cc(Nc2nc3c(c(N4C[C@@H](C)O[C@@H](C)C4)n2)COC3c2ccc(F)cc2)ccc1-n1cnc(Cl)c1 (stereo partly drawn) [Example 84A, N-(4-(4-chloro-1H-imidazol-1-yl)-3-methoxyphenyl)-4-((2S,6R)-2,6-dimethylmorpholino)-7-(4-fluorophenyl)-5,7-dihydrofuro[3,4-d]pyrimidin-2-amine]"
3,10 to 100,"CCNc1nc(Nc2ccc(-n3cnc(Cl)c3)c(OC)c2)nc2c1CCOC2c1ccc(F)cc1 (stereo not shown) [Example 88B, N2-(4-(4-chloro-1H-imidazol-1-yl)-3-methoxyphenyl)-N4-ethyl-8-(4-fluorophenyl)-6,8-dihydro-5H-pyrano[3,4-d]pyrimidine-2,4-diamine]"

# Same assay, conditions: 19 h, H4 APP751 SWE clone 8.20 cells, 19 h incubation; read-out: Activity Rating (Aβ42 cellular IC50), numeric value
row,SMILES,IC50 [nM]
1,"CNc1nc(Nc2ccc(-n3ncnc3C)c(F)c2)nc2c1COCC2c1ccc(Br)cc1 (stereo not shown) [Example 73, 8-(4-bromophenyl)-N^2-(3-fluoro-4-(5-methyl-1H-1,2,4-triazol-1-yl)phenyl)-N^4-methyl-7,8-dihydro-5H-pyrano[4,3-d]pyrimidine-2,4-diamine]",3.8
2,"CNc1nc(Nc2ccc(-n3ncnc3C)c(F)c2)nc2c1CCOC2c1ccccc1 (stereo not shown) [Example 87, N2-(3-fluoro-4-(5-methyl-1H-1,2,4-triazol-1-yl)phenyl)-N4-methyl-8-phenyl-6,8-dihydro-5H-pyrano[3,4-d]pyrimidine-2,4-diamine]",60
3,"COc1cc(Nc2nc3c(c(N4CC(F)(F)C4)n2)CCC3c2ccc(Cl)cc2)ccc1-n1cnc(Cl)c1 (stereo not shown) [Example 93, N-(4-(4-Chloro-1H-imidazol-1-yl)-3-methoxyphenyl)-7-(4-chlorophenyl)-4-(3,3-difluoroazetidin-1-yl)-6,7-dihydro-5H-cyclopenta[d]pyrimidin-2-amine]",20

# More lines, now with the values ahead:
row,IC50 [nM],SMILES
1,290,"COc1cc(Nc2nc3c(c(N4C[C@@H](C)O[C@@H](C)C4)n2)COC3c2ccc(F)cc2)ccc1-n1cnc(Cl)c1 (stereo partly drawn) [Example 84B, N-(4-(4-chloro-1H-imidazol-1-yl)-3-methoxyphenyl)-4-((2S,6R)-2,6-dimethylmorpholino)-7-(4-fluorophenyl)-5,7-dihydrofuro[3,4-d]pyrimidin-2-amine]"
2,4.5,"CCNc1nc(Nc2ccc(-n3cnc(Cl)c3)c(OC)c2)nc2c1CCOC2c1ccc(F)cc1 (stereo not shown) [Example 88A, N2-(4-(4-chloro-1H-imidazol-1-yl)-3-methoxyphenyl)-N4-ethyl-8-(4-fluorophenyl)-6,8-dihydro-5H-pyrano[3,4-d]pyrimidine-2,4-diamine]"

# Same assay, conditions: H4 APP751 SWE clone 8.20 cells, 19 h incubation; class symbols; read-out: Activity Rating (Aβ42 cellular IC50)
row,IC50 [nM],SMILES
1,10 to 100,"COc1cc(Nc2nc3c(c(N4CC(F)(F)C4)n2)COCC3c2ccc(F)cc2)ccc1-n1cnc(Cl)c1 (stereo not shown) [Example 63A, N-(4-(4-chloro-1H-imidazol-1-yl)-3-methoxyphenyl)-4-(3,3-difluoroazetidin-1-yl)-8-(4-fluorophenyl)-7,8-dihydro-5H-pyrano[4,3-d]pyrimidin-2-amine]"
2,100 to 1000,"COc1cc(Nc2nc3c(c(N4CC(F)(F)C4)n2)COCC3c2ccc(F)cc2)ccc1-n1cnc(Cl)c1 (stereo not shown) [Example 63B, N-(4-(4-chloro-1H-imidazol-1-yl)-3-methoxyphenyl)-4-(3,3-difluoroazetidin-1-yl)-8-(4-fluorophenyl)-7,8-dihydro-5H-pyrano[4,3-d]pyrimidin-2-amine]"
3,1.5 to 9.9,"CNc1nc(Nc2ccc(-n3ncnc3C)c(F)c2)nc2c1COC2c1ccc(F)cc1 (stereo not shown) [Example 82A, N2-(3-fluoro-4-(5-methyl-1H-1,2,4-triazol-1-yl)phenyl)-7-(4-fluorophenyl)-N4-methyl-5,7-dihydrofuro[3,4-d]pyrimidine-2,4-diamine]"
4,10 to 100,"CNc1nc(Nc2ccc(-n3ncnc3C)c(F)c2)nc2c1COC2c1ccc(F)cc1 (stereo not shown) [Example 82B, N2-(3-fluoro-4-(5-methyl-1H-1,2,4-triazol-1-yl)phenyl)-7-(4-fluorophenyl)-N4-methyl-5,7-dihydrofuro[3,4-d]pyrimidine-2,4-diamine]"
